≈ marks a conversion by molar mass, not a printed value.
Columns and labels:
[1] = tested on: N. gonorrhoeae WHO Q; experiment: Liquid broth MIC in Fastidious broth; conditions: Neisseria gonorrhoeae, read-out: Minimum Inhibitory Concentration (MIC), N. gonorrhoeae WHO Q
Method: Liquid broth-based assays were used for antibacterial testing of PBP inhibitors in Neisseria gonorrhoeae. Briefly, cryo-preserved bacterial cultures of clinical strains were streaked for isolation on Chocolate Agar (72 g/L (2×) GC Agar Base (BD #228950) and 2% (2×) Hemoglobin was autoclaved at 121° C. for 20 minutes to sterilize. Once cooled to ˜50° C. the 2×GC Agar Base and 2× Hemoglobin solutions are combined and 1% IsoVitaleX Enrichment (BD #211876) was added to the solution). Strains were incubated at 36° C. and 5% CO2 to allow growth of colonies, 24 hours before inoculum preparation. 2-fold serial dilutions of test compounds were conducted in a 96 well plate with a final volume of 75 μL per well at 2-fold the final desired concentration in Fastidious broth (Remel #R07664). For preparation of assay inoculum, a direct suspension was prepared by aseptically swabbing 10-15 colonies from agar plates into culture tubes containing 2 mL of fresh sterile saline. After the dilution plates were set up, direct suspensions were then diluted in a cuvette containing sterile saline and the optical density was measured at 600 nm. Inocula were diluted such that 75 μL of this culture in Fastidious broth results in a starting bacterial concentration of 5×10^5 CFU/mL when added to the dilution plates. The plates were incubated for ˜24 hours at 36° C. and 5% CO2.

[2] = tested on: P. aeruginosa CDC-0095; experiment: microbe, parasite or virus in culture; assay type: cell-based; conditions: Pseudomonas aeruginosa, CDC0095, read-out: Minimum inhibitory concentration, P. aeruginosa CDC-0095
[3] = tested on: N. gonorrhoeae WHO G; experiment: Liquid broth MIC in Fastidious broth; conditions: Neisseria gonorrhoeae, read-out: Minimum Inhibitory Concentration (MIC), N. gonorrhoeae WHO G
[4] = tested on: A. baumannii 1258916; experiment: microbe, parasite or virus in culture; assay type: cell-based, Acinetobacter baumannii; conditions: Acinetobacter baumannii, 1258916, read-out: MIC, A. baumannii 1258916
[5] = tested on: B. thailandensis ATCC 700388; experiment: microbe, parasite or virus in culture; assay type: cell-based; conditions: Burkholderia thailandensis, ATCC700388, read-out: Minimum inhibitory concentration (MIC), B. thailandensis ATCC 700388
[6] = molecular target: T1, PBP3 from Acinetobacter baumannii (ATCC 19606) (Acinetobacter baumannii, UniProt A0ABX6CK25); experiment: Bocillin-FL fluorescence polarization competition binding, A. baumannii PBP3; conditions: fluorescence polarization competition binding assay using Bocillin-FL; read-out: A. baumannii PBP3 Potency
T1 sequence (A0ABX6CK25 64-610): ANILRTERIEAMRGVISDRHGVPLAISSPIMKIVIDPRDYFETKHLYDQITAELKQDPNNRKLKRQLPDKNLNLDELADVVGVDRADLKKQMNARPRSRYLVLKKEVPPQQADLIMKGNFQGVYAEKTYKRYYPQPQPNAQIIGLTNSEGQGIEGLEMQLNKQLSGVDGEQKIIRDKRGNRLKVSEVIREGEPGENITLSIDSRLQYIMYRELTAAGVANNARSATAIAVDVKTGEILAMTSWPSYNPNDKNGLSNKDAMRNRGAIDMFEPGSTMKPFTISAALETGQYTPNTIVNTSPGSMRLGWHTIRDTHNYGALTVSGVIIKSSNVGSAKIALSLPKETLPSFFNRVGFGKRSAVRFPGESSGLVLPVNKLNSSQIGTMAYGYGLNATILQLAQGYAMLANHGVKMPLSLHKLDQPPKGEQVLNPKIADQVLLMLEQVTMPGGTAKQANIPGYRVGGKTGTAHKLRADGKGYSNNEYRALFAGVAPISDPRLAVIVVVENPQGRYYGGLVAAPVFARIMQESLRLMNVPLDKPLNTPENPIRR
Summary of the method: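 Purified PBPs pre-incubated with inhibitor (E. coli PBP3 1.5 μM, 30 min; P. aeruginosa PBP3 0.75 μM, A. baumannii PBP1a 1 μM and PBP3 0.2 μM, 15 min), then Bocillin-FL 0.1 μM (0.05 μM for PBP1a) added; FP read up to 60 min. EC50 = concentration halving bound Bocillin-FL.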

[7] = tested on: N. gonorrhoeae MS11; experiment: Liquid broth MIC in Fastidious broth; conditions: Neisseria gonorrhoeae, MS11, read-out: Minimum Inhibitory Concentration (MIC), N. gonorrhoeae MS11
[8] = tested on: P. aeruginosa CDC-0110; experiment: microbe, parasite or virus in culture; assay type: cell-based; conditions: Pseudomonas aeruginosa, CDC0110, read-out: Minimum inhibitory concentration, P. aeruginosa CDC-0110
[9] = tested on: A. baumannii CDC-0036; experiment: microbe, parasite or virus in culture; assay type: cell-based; conditions: Acinetobacter baumannii, CDC0036, read-out: MIC, A. baumannii CDC-0036
[10] = tested on: P. aeruginosa ATCC 27853; experiment: microbe, parasite or virus in culture; assay type: cell-based; conditions: Pseudomonas aeruginosa, ATCC27853, read-out: Minimum inhibitory concentration, P. aeruginosa ATCC 27853
[11] = tested on: A. baumannii CDC-0033; experiment: microbe, parasite or virus in culture; assay type: cell-based; conditions: Acinetobacter baumannii, CDC0033, read-out: MIC, A. baumannii CDC-0033

Compound | MIC [1] | MIC [2] | MIC [3] | MIC [4] | MIC [5] | IC50 [6] | MIC [7] | MIC [8] | MIC [9] | MIC [10] | MIC [11]
O=C(CN1CCN(C(=O)NC(C(=O)N[C@H]2Cc3ccc(F)c(C(=O)O)c3OB2O)c2cc(F)c(O)c(O)c2Cl)C(=O)C1=O)Nc1ccc(O)cc1 (stereo partly drawn) [Example 230, (3R)-3-(2-(2-chloro-5-fluoro-3,4-dihydroxyphenyl)-2-(4-(2-((4-hydroxyphenyl)amino)-2-oxoethyl)-2,3-dioxopiperazine-1-carboxamido)acetamido)-7-fluoro-2-hydroxy-3,4-dihydro-2H-benzo[e][1,2]oxaborinine-8-carboxylic acid] | 16 to 32 µg/mL (≈ 21.9 to 43.7 µM) | < 1 µg/mL | 4 to 8 µg/mL (≈ 5.47 to 10.9 µM) | 2 to 4 µg/mL (≈ 2.73 to 5.47 µM) | 2 to 4 µg/mL (≈ 2.73 to 5.47 µM) | < 10 µM | 4 to 8 µg/mL (≈ 5.47 to 10.9 µM) | < 1 µg/mL | 2 to 4 µg/mL (≈ 2.73 to 5.47 µM) | < 1 µg/mL | 2 to 4 µg/mL (≈ 2.73 to 5.47 µM)
O=C(CN1CCN(C(=O)NC(C(=O)N[C@H]2Cc3ccc(F)c(C(=O)O)c3OB2O)c2cc(F)c(O)c(O)c2Cl)C(=O)C1=O)Nc1cccc(O)c1 (stereo partly drawn) [Example 231, (3R)-3-(2-(2-chloro-5-fluoro-3,4-dihydroxyphenyl)-2-(4-(2-((3-hydroxyphenyl)amino)-2-oxoethyl)-2,3-dioxopiperazine-1-carboxamido)acetamido)-7-fluoro-2-hydroxy-3,4-dihydro-2H-benzo[e][1,2]oxaborinine-8-carboxylic acid] | 16 to 32 µg/mL (≈ 21.9 to 43.7 µM) | 2 to 4 µg/mL (≈ 2.73 to 5.47 µM) | 4 to 8 µg/mL (≈ 5.47 to 10.9 µM) | 2 to 4 µg/mL (≈ 2.73 to 5.47 µM) | 2 to 4 µg/mL (≈ 2.73 to 5.47 µM) | < 10 µM | 16 to 32 µg/mL (≈ 21.9 to 43.7 µM) | < 1 µg/mL | 2 to 4 µg/mL (≈ 2.73 to 5.47 µM) | < 1 µg/mL | 8 to 16 µg/mL (≈ 10.9 to 21.9 µM)
O=C(CN1CCN(C(=O)NC(C(=O)N[C@H]2Cc3ccc(F)c(C(=O)O)c3OB2O)c2cc(F)c(O)c(O)c2Cl)C(=O)C1=O)Nc1ccccc1 (stereo partly drawn) [Example 232, (3R)-3-(2-(2-chloro-5-fluoro-3,4-dihydroxyphenyl)-2-(2,3-dioxo-4-(2-oxo-2-(phenylamino)ethyl)piperazine-1-carboxamido)acetamido)-7-fluoro-2-hydroxy-3,4-dihydro-2H-benzo[e][1,2]oxaborinine-8-carboxylic acid] | > 64 µg/mL | 2 to 4 µg/mL (≈ 2.79 to 5.59 µM) | 16 to 32 µg/mL (≈ 22.4 to 44.7 µM) | 2 to 4 µg/mL (≈ 2.79 to 5.59 µM) | < 1 µg/mL | < 10 µM | 16 to 32 µg/mL (≈ 22.4 to 44.7 µM) | 2 to 4 µg/mL (≈ 2.79 to 5.59 µM) | 8 to 16 µg/mL (≈ 11.2 to 22.4 µM) | 2 to 4 µg/mL (≈ 2.79 to 5.59 µM) | 32 to 64 µg/mL (≈ 44.7 to 89.4 µM)
O=C(CN1CCN(C(=O)NC(C(=O)N[C@H]2Cc3ccc(F)c(C(=O)O)c3OB2O)c2cc(F)c(O)c(O)c2Cl)C(=O)C1=O)Nc1ccncc1 (stereo partly drawn) [Example 233, (3R)-3-(2-(2-chloro-5-fluoro-3,4-dihydroxyphenyl)-2-(2,3-dioxo-4-(2-oxo-2-(pyridin-4-ylamino)ethyl)piperazine-1-carboxamido)acetamido)-7-fluoro-2-hydroxy-3,4-dihydro-2H-benzo[e][1,2]oxaborinine-8-carboxylic acid] | 16 to 32 µg/mL (≈ 22.3 to 44.6 µM) | 2 to 4 µg/mL (≈ 2.79 to 5.58 µM) | 4 to 8 µg/mL (≈ 5.58 to 11.2 µM) | < 1 µg/mL | 2 to 4 µg/mL (≈ 2.79 to 5.58 µM) | < 10 µM | 16 to 32 µg/mL (≈ 22.3 to 44.6 µM) | < 1 µg/mL | 2 to 4 µg/mL (≈ 2.79 to 5.58 µM) | < 1 µg/mL | 8 to 16 µg/mL (≈ 11.2 to 22.3 µM)
O=C(CN1CCN(C(=O)NC(C(=O)N[C@H]2Cc3ccc(F)c(C(=O)O)c3OB2O)c2cc(F)c(O)c(O)c2Cl)C(=O)C1=O)Nc1cccnc1 (stereo partly drawn) [Example 234, (3R)-3-(2-(2-chloro-5-fluoro-3,4-dihydroxyphenyl)-2-(2,3-dioxo-4-(2-oxo-2-(pyridin-3-ylamino)ethyl)piperazine-1-carboxamido)acetamido)-7-fluoro-2-hydroxy-3,4-dihydro-2H-benzo[e][1,2]oxaborinine-8-carboxylic acid] | 16 to 32 µg/mL (≈ 22.3 to 44.6 µM) | 32 to 64 µg/mL (≈ 44.6 to 89.3 µM) | 4 to 8 µg/mL (≈ 5.58 to 11.2 µM) | < 1 µg/mL | 8 to 16 µg/mL (≈ 11.2 to 22.3 µM) | < 10 µM | 16 to 32 µg/mL (≈ 22.3 to 44.6 µM) | < 1 µg/mL | 2 to 4 µg/mL (≈ 2.79 to 5.58 µM) | 2 to 4 µg/mL (≈ 2.79 to 5.58 µM) | 8 to 16 µg/mL (≈ 11.2 to 22.3 µM)
O=C(CN1CCN(C(=O)NC(C(=O)N[C@H]2Cc3ccc(F)c(C(=O)O)c3OB2O)c2cc(F)c(O)c(O)c2Cl)C(=O)C1=O)Nc1nccs1 (stereo partly drawn) [Example 235, (3R)-3-(2-(2-chloro-5-fluoro-3,4-dihydroxyphenyl)-2-(2,3-dioxo-4-(2-oxo-2-(thiazol-2-ylamino)ethyl)piperazine-1-carboxamido)acetamido)-7-fluoro-2-hydroxy-3,4-dihydro-2H-benzo[e][1,2]oxaborinine-8-carboxylic acid] | 16 to 32 µg/mL (≈ 22.1 to 44.3 µM) | 2 to 4 µg/mL (≈ 2.77 to 5.53 µM) | 4 to 8 µg/mL (≈ 5.53 to 11.1 µM) | 2 to 4 µg/mL (≈ 2.77 to 5.53 µM) | 8 to 16 µg/mL (≈ 11.1 to 22.1 µM) | < 10 µM | 16 to 32 µg/mL (≈ 22.1 to 44.3 µM) | < 1 µg/mL | 2 to 4 µg/mL (≈ 2.77 to 5.53 µM) | 2 to 4 µg/mL (≈ 2.77 to 5.53 µM) | 8 to 16 µg/mL (≈ 11.1 to 22.1 µM)
O=C(CN1CCN(C(=O)NC(C(=O)N[C@H]2Cc3ccc(F)c(C(=O)O)c3OB2O)c2cc(F)c(O)c(O)c2Cl)C(=O)C1=O)NCc1cccc(O)c1 (stereo partly drawn) [Example 237, (3R)-3-(2-(2-chloro-5-fluoro-3,4-dihydroxyphenyl)-2-(4-(2-((3-hydroxybenzyl)amino)-2-oxoethyl)-2,3-dioxopiperazine-1-carboxamido)acetamido)-7-fluoro-2-hydroxy-3,4-dihydro-2H-benzo[e][1,2]oxaborinine-8-carboxylic acid] | > 64 µg/mL | 2 to 4 µg/mL (≈ 2.68 to 5.36 µM) | 4 to 8 µg/mL (≈ 5.36 to 10.7 µM) | 2 to 4 µg/mL (≈ 2.68 to 5.36 µM) | 8 to 16 µg/mL (≈ 10.7 to 21.5 µM) | < 10 µM | 16 to 32 µg/mL (≈ 21.5 to 42.9 µM) | < 1 µg/mL | 8 to 16 µg/mL (≈ 10.7 to 21.5 µM) | 2 to 4 µg/mL (≈ 2.68 to 5.36 µM) | 8 to 16 µg/mL (≈ 10.7 to 21.5 µM)
O=C(CN1CCN(C(=O)NC(C(=O)N[C@H]2Cc3ccc(F)c(C(=O)O)c3OB2O)c2cc(F)c(O)c(O)c2Cl)C(=O)C1=O)NCc1ccccc1 (stereo partly shown) [Example 238] | > 64 µg/mL | 2 to 4 µg/mL (≈ 2.74 to 5.48 µM) | 4 to 8 µg/mL (≈ 5.48 to 11 µM) | 2 to 4 µg/mL (≈ 2.74 to 5.48 µM) | 8 to 16 µg/mL (≈ 11 to 21.9 µM) | < 10 µM | 16 to 32 µg/mL (≈ 21.9 to 43.8 µM) | < 1 µg/mL | 8 to 16 µg/mL (≈ 11 to 21.9 µM) | 2 to 4 µg/mL (≈ 2.74 to 5.48 µM) | 8 to 16 µg/mL (≈ 11 to 21.9 µM)

Source: patent US20240270762A1, “PENICILLIN-BINDING PROTEIN INHIBITORS” (priority 2021, published 2024)
